# Assays:
# [1] = tested on: MMP-9 mRNA; experiment: Real time RT-PCR mRNA expression; format: cell-based, human
# Description: (§1) The real-time reverse transcription polymerase chain reaction (RT-PCR) uses fluorescent reporter molecules to monitor the production of amplification products during each cycle of the PCR reaction. This combines the nucleic acid amplification and detection steps into one homogeneous assay and use of appropriate chemistries and data analysis eliminates the need for Southern blotting or DNA sequencing for amplicon identification. Its simplicity, specificity and sensitivity, together with its potential for high throughput and the ongoing introduction of new chemistries, more reliable instrumentation and improved protocols, has made real-time RT-PCR the benchmark technology for the detection and/or comparison of RNA levels.′
# (§2) In order to detect and quantify the expression of specific genes at mRNA level, real-time reverse transcriptase polymerase chain reaction (Real time RT-PCR) was performed. Total RNA of samples was isolated and purified using the PureLink® RNA Mini Kit (Life technologies). The concentration of total RNA was detected by NanoDrop 2000 Spectrophotometer (Thermo Scientific). The total RNA (2000 ng) was reverse transcribed using the High-Capacity cDNA Reverse Transcription Kit (Applied Biosystems™).
# (§3) The primers of target genes were TaqMan™ Gene Expression Assay for human PLAU (Hs01547054_m1), MMP-2 (Hs01548727_ml), MMP-9 (Hs00957562_m1), Snail-1 (Hs00195591_m1), Snail-2 (Hs00161904_m1), N-cadherin (Hs00983056_m1) and Twist (Hs01675818_s1). Relative quantification was done by reference to 18S ribosomal RNA (18S rRNA) and analysed using the comparative critical threshold (Ct) method
# (§4) The mRNA expression of MMPs was measured using qRT-PCR. This was tested three independent times; the results are shown in Tables 8, 9 and 10 for U251, U87 cells and 081024 cells respectively. Results are reported as percent of the control cells (no treatment). SEQ ID NO.
# [2] = tested on: uPA (PLAU) mRNA; experiment: Real time RT-PCR mRNA expression; format: cell-based, human
# Description: as §1, §2, §3, §4
# [3] = tested on: MMP-2 mRNA; experiment: Real time RT-PCR mRNA expression; format: cell-based, human
# Description: as §1, §2, §3, §4
# [4] = molecular target: T1, recombinant MMP-2 (Homo sapiens, UniProt P08253); experiment: MMP-2 Inhibitor Screening Assay Kit (colorimetric); format: biochemical
# T1 construct: purchased ab139446
# T1 sequence (P08253 110-446 limits assumed): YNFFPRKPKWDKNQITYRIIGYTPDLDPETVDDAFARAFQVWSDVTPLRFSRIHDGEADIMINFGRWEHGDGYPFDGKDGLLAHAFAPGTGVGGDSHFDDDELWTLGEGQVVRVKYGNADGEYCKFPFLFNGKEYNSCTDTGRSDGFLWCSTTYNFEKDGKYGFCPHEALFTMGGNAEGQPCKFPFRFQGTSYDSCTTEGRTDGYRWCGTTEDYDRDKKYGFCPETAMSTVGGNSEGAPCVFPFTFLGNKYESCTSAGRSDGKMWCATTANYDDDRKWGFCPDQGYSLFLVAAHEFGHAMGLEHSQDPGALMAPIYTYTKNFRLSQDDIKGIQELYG
# Method: MMP-2 is an important target for inhibitor screening due to its involvement in cancer growth, angiogenesis, and metastasis. The MMP-2 screening assay was carried out with a commercially available MMP-2 Inhibitor Screening Assay Kit (Colorimetric, Catalog: ab139446) based on the manufacturers protocol. This assay is based on quantification of recombinant MMP-2 activity using a colorimetric assay (MMP-2 degrades a chromogenic substrate). The assay provides NNGH (N-isobutyl-N-(4-methoxyphenylsulfonyl) glycyl hydroxamic acid), a small molecule inhibitor, as a positive control (NNGH). […] Each determination was run in duplicate.
# Briefly, MMP Substrate and MMP Inhibitor were warmed to room temperature to thaw DMSO. MMP Inhibitor (NNGH), MMP-2 substrate and MMP-2 enzyme were diluted with assay buffer to required concentration. 20 μL of MMP-2 enzyme and MMP-2 inhibitor (peptides, Chlorotoxin and NNGH) was added, then 50 μL of assay buffer was added and the reaction mixture incubated at 37° C. for 1 h. After incubation, 10 μL of MMP Substrate was added to start reaction. The reactions were continuously read at 412 nm in a microplate reader. Data was recorded at 1 min. time intervals for 10 to 20 min. The data as was plotted as optical density (OD) versus time for each sample. The reaction velocity (V) was obtained in OD/min: determine the slope of a line fit to the linear portion of the data plot using an appropriate routine. Then using the equation above the inhibitor % activity remaining was calculated. The control was without inhibitor.
# [5] = Description: The MTT (3-[4.5-dimethylthiazol-2-yl]-2,5=diphenyl tetrazolium bromide) assay is based on a process undertaken by living cells, involving the conversion of MTT into formazan crystals. This assay is used routinely to measure the in vitro cytotoxic effects of drugs on cell lines or primary patient cells (Van Meerloo et al., 2011).
# The glioblastoma multiforme (GBM) cell lines used were U87 and U251 cells and patient derived cells grown as oncospheres (081024 cells). Human adherent GBM cell lines U87 and U251 were cultured in RPMI medium (Life Technologies Melbourne Australia) supplemented with 5% v/v FBS, 100 U/mL penicillin and 100 μg/mL streptomycin. 081024 cells were cultured in NeuroCult™ NS-A Proliferation medium with 0.2% (v/v) hepain, 20 ng/mL EGF and 10 ng/ml FGF.
# 8×10^3 U87 and 7×10^3 U251 cells per well were seeded in 96 well plates in 200 μL serum-containing RPMI medium and incubated at 37° C. with 5% CO2 for 24 hours. After one wash with serum-free medium, 100 μL serum-free medium with different concentration of peptide SEQ ID NO:1 was added to each well. After 48 hours incubation, 10 μL of 0.5 mg/mL MTT was added and incubated for 2 hours at 37° C. Formazan crystals were dissolved by 200 μL/well dimethyl sulfoxide (DMSO) and shaking for 15 minutes. The UV absorbance was read with an iMark™ microplate absorbance reader at 595 nm (Bio-Rad Laboratories). Background absorbance was subtracted and results expressed as the % viability of control (untreated cells).
# [6] = 081024 cells, baseline expression level = 1
# [7] = U87 cells, baseline expression level = 1
# [8] = U251 cells, relative to untreated control, 18S rRNA reference
smiles,measurement,setting,value
"CC(C)C[C@@H](NC(=O)[C@@H](Cc1ccccc1)NC(=O)CNC(=O)CNC(=O)[C@H](N)Cc1ccc(O)cc1)C(=O)N[C@H](CCCNC(=N)N)C(=O)N[C@H](CCCNC(=N)N)C(N)=O [SEQ ID NO. 1, tyr-Gly-Gly-phe-leu-arg-arg-NH2]",MMP-9 mRNA expression,[1]; [6],0.54
same,MMP-9 mRNA expression,[1]; [7],0.71
same,effect on mRNA expression of MMP-9 (in words),"[1]; U251, U87 and 081024 cells",did not have a statistically significant effect
same,MMP-9 mRNA expression,[1]; [8],1.10
same,uPA mRNA expression,[2]; [6],0.67
same,uPA mRNA expression,[2]; [7],1.20
same,effect on mRNA expression of uPA (in words),"[2]; U251, U87 and 081024 cells",did not have a statistically significant effect
same,uPA mRNA expression,[2]; [8],0.82
same,MMP-2 mRNA expression,[3]; [6],0.72
same,MMP-2 mRNA expression,[3]; [7],0.74
same,effect on mRNA expression of MMP-2 (in words),"[3]; U251, U87 and 081024 cells",did not have a statistically significant effect
same,MMP-2 mRNA expression,[3]; [8],0.95
same,activity at 1 µM,"[4]; 1 μM, lower % = higher inhibitory activity, read-out: % inhibition (MMP-2 inhibitor screening)",66.4%
same,activity at 10 µM,"[4]; 10 μM, lower % = higher inhibitory activity, read-out: % inhibition (MMP-2 inhibitor screening)",61.8%
same,activity at 100 µM,"[4]; 100 μM, lower % = higher inhibitory activity, read-out: % inhibition (MMP-2 inhibitor screening)",50.4%
same,ability to inhibit MMP-2 activity (in words),[4]; 1 to 100 μM,dose dependent ability to inhibit MMP-2 activity
same,viability at 5 µM,[5],100%
same,viability at 50 µM,[5],101%
same,viability at 100 µM,[5],94.4%
